We go through one compound from patent US5215994A, “Angiotenin II antagonizing heterocyclic derivatives” (Fujisawa Pharmaceutical Co., Ltd., priority 1990, dated 1993).

The test system of the assay is contractile response to angiotensin II in excised guinea pig ileum. Briefly: Inhibition by the antagonist of contractile response to angiotensin II in excised guinea pig ileum. The note with it: excised guinea pig ileum longitudinal strips; angiotensin II 10^-8 g/ml; test compound added 3 minutes prior; atropine present; 37° C.; read-out: IC50 (inhibition of angiotensin II contraction, percentage change to control response). On the procedure:
[2] Inhibition by the antagonist of contractile response to angiotensin II in excised guinea pig ileum
Male guinea pigs weighing 300 g to 500 g were sacrificed by decapitation and the ileum were excised. Longitudial strips of the ileum (length: 2 cm) were placed in a 25 ml organ bath containing Tyrode's solution of the following composition (mM): NaCl, 137; KCl, 2.7; CaCl2, 1.8; MgCl2, 1.1; NaH2 PO4, 0.4; NaHCO3, 12; Glucose, 5.6.
The bath was maintained at 37° C. and bubbled with 95% O2 +5% CO2. The strips was stretched with a resting force of 0.5 g, and the isometric contraction were recorded via force development transducer on an ink-writing recorder. The preparation was equilibrated in Tyrode's solution mentioned above for 30 minutes, and then exposed to atropine (3.2×10^-7 g/ml) Five minutes later, the response for angiotensin II (1×10^-8 g/ml) was obtained and the preparation was washed a few times. This procedure was repeated twice. […] The inhibition of the test compound for angiotensin II contraction were expressed as a percentage change to control response, and IC50 (M) was calculated.

Usually IC50 stands for the point on the concentration scale where inhibition reaches its midpoint. For the compound `CCCCc1nc2c(C)ccnc2n1Cc1ccc(-n2cc(Br)cc2-c2nnn[nH]2)cc1` [Compound 1, 3-[4-[4-Bromo-2-(1H-tetrazol-5-yl)-1-pyrrolyl]benzyl]-2-butyl-7-methyl-3H-imidazo[4,5-b]pyridine], the 50% inhibitory concentration (IC50) worked out at 1.7 nM.
